Experimental data from US20250257111A1, “Supramolecular Complex of a Biomolecule” (Cambridge Enterprise Limited, priority 2022, published 2025).
Square brackets hold non-standard residues; d marks the D form. Peptide text beside a SMILES is read from it. 2Nal = N[C@@H](Cc1ccc2ccccc2c1)C(=O)O

Tests used:
[1] = UV quantification of insulin on-resin recognition, 8-day storage and on-demand release; assay type: physicochemical
Description: UV spectra were obtained on a Cary 4000 Ultravioletvisible Spectrometer. A pair of quartz cuvettes with 2 mm gap was used. Double beam mode with a fixed 2 nm spectral bandwidth and baseline correction were selected. In a typical run, 300 μl of 1 mM solution was transferred to the quartz cuvette and was scanned compared to phosphate buffer in D2O. UV spectra were obtained in the linear absorption range (0.2-0.8) for better quantification.
1 N HCl was immediately added to reach acid concentration of 5 mM. […] In a typical experiment, 8 μmol F′GGGGG equivalent of resin H2O suspension was added to a 12 ml syringe with a polyester frit (r=8.0 mm, h=2.0 mm). After H2Owas drained, 8 ml of 0.1 mM CB[8] solution was added to the resin and the plunge and a stopper were assembled to the syringe to form a sealed chamber. The syringe was transferred onto a wrist-action shaker and shaken for 12 hours. […] Then, the liquid (resin-treated solution) in syringe was drained thoroughly and the resin was washed with H2Oonce. After that, 0.8 ml of 2 mM DMADA solution (in 5 mM of HCl) was added to the resin and shaken gently for an additional 3 hours. The solution (released solution) was drained.
The 8-day storage and release experiment was conducted as follows. 9 syringes were prepared each with 8 μmol F′GGGGG equivalent of resin H2Osuspension. […] All syringes with the resin were kept at room temperature. Starting from day 0 to day 8, on each day, a syringe with resin was added with 0.8 ml of 2 mM DMADA solution (to get released solution, one per day). All yielded solutions were analyzed on UV spectroscopy immediately. Numbers to calculate released percentage in FIG. 4g were absorbance at 276 nm.

[2] = CD secondary structure verification of released insulin; assay type: physicochemical
Description: CD measurements were performed on a Chirascan spectrometer (Applied Photophysics). Scans were carried out at 298 K from 200-500 nm at 1.0 nm intervals. The acquisition time was 0.5 second in a 0.1 cm path length quartz cuvette. CD spectra were collected using solutions from the above UV experiments of the 8-day storage and release experiments. […] All solutions were diluted 2× before the measurements. All scans were collected and averaged out over three scans with background noise correction.

[3] = test system: 1:1 complex of F′GG-CB[8]; assay: ITC: secondary association of tripeptides with the 1:1 complex of F′GG-CB[8]; assay type: binding; conditions: for secondary association / binding to F′GG-CB[8]: in words; for Ka: 10 mM phosphate buffer pH 7.0, 298 K, averaged with three replicates
Description: (§1) Isothermal titration calorimetry (ITC) was employed to study binding thermodynamics of heteropeptide dimerization (FIG. 2c and additional data not shown). Titration of F′GG (3.0 mM) into CB[8](0.1 mM) led to a stepwise binding curve with two transitions at molar ratios of 1.0 and 2.0 (FIG. 2c). The first-step binding constant (K1) is 6.6×10^5 M^−1, while the second-step (K2) is 9.4×10^3 M^−1. This indicates negative cooperativity where K1>K2^18,19,23 Such favourable 1:1 complexation enables secondary access of electron-rich aromatic peptides.
(§2) ITC experiments were operated on a Malvern MicroCal Auto-ITC200 apparatus at 298 K in 10 mM phosphate buffer with pH 7.0. In a of 1 injection of 0.6 μL and 32 consecutive injections of 1.2 μL with 90 s intervals between injections. The first data point was removed before analysis. The ITC data were fitted by MicroCal Analysis Centre software using one set of sites model. In a typical experiment for homoternary complexation, the host molecule (CB[8]) was loaded in the sample cell with a concentration of 0.1 mM, and the guest peptide was loaded in the syringe with a concentration of 2.0 mM. The injection and interval settings were the same as above. The first data point was removed from the data set before analysis. The obtained ITC curves were fitted by MicroCal Analysis Centre software using sequential binding model. All parameters were averaged with three replicates, s.d. n=3.

[4] = cited from earlier work
[5] = ITC: titration of F′GG into CB[8] (stepwise binding); conditions: F′GG (3.0 mM) into CB[8] (0.1 mM)
Description: as §1
as §2, with “All parameters were averaged with three replicates, s.d. n=3.” left out

insulin: Insulin (Human Recombinant), purchased; widely-used biopharmaceutical for diabetes treatment
UV absorbance at 276 nm, released ([1]; release on day 0): 0.176 abs
UV absorbance at 276 nm, released ([1]; release on day 2, storage at room temperature): 0.1768 abs
UV absorbance at 276 nm, released ([1]; release on day 5, storage at room temperature): 0.1683 abs
UV absorbance at 276 nm, released ([1]; release on day 8, storage at room temperature): 0.1739 abs
secondary structures of insulin after storage ([2]; after 2, 5, 8 days of storage under room temperature on functionalized resin): intact
CD absorbance at 208 nm, signal (mean of repeats) ([2]; insulin, original): −56.4 θm · deg
CD absorbance at 208 nm, signal (mean of repeats) ([2]; released on day 2): −56.4 θm · deg
CD absorbance at 208 nm, signal (mean of repeats) ([2]; released on day 5): −50.3 θm · deg
CD absorbance at 208 nm, signal (mean of repeats) ([2]; released on day 8): −52.3 θm · deg

NC(=O)CNC(=O)CNC(=O)[C@@H](N)CCC(=O)O [EGG, reference compound] (H-Glu-Gly-Gly-NH2)
secondary association / binding to F′GG-CB[8] [3]: no secondary association

NC(=O)CNC(=O)CNC(=O)[C@@H](N)Cc1ccc(O)cc1 [YGG] (H-Tyr-Gly-Gly-NH2)
Ka [3]: 3 ± 5 10^3M^−1

NCC(=O)NCC(=O)N[C@@H](Cc1ccccc1)C(N)=O [GGF, (S)-2-(2-(2-aminoacetamido)acetamido)-3-phenylpropanamide] (H-Gly-Gly-Phe-NH2)
Ka [3]: 22 ± 1 10^3M^−1

CC(C)C[C@H](N)C(=O)NCC(=O)NCC(N)=O [LGG, reference compound] (H-Leu-Gly-Gly-NH2)
secondary association / binding to F′GG-CB[8] [3]: no secondary association

NCC(=O)N[C@@H](Cc1ccc2ccccc2c1)C(=O)NCC(N)=O [GNpG, (S)—N-(2-amino-2-oxoethyl)-2-(2-aminoacetamido)-3-(naphthalen-2-yl)propanamide] (H-Gly-[2Nal]-Gly-NH2)
Ka [3]: 165 ± 10 10^3M^−1

NC(=O)CNC(=O)CNC(=O)[C@@H](N)Cc1c[nH]c2ccccc12 [WGG, (S)-2-amino-N-(2-((2-amino-2-oxoethyl)amino)-2-oxoethyl)-3-(1H-indol-3-yl) propanamide] (H-Trp-Gly-Gly-NH2)
Ka [3]: 460 ± 53 10^3M^−1

NC(=O)CNC(=O)CNC(=O)[C@@H](N)Cc1ccc2ccccc2c1 [NpGG, (S)-2-amino-N-(2-((2-amino-2-oxoethyl)amino)-2-oxoethyl)-3-(naphthalen-2-yl) propanamide] (H-[2Nal]-Gly-Gly-NH2)
Ka [3]: 382 ± 22 10^3M^−1

NCCCC[C@H](N)C(=O)NCC(=O)NCC(N)=O [KGG, (S)-2,6-diamino-N-(2-((2-amino-2-oxoethyl)amino)-2-oxoethyl)hexanamide, reference compound] (H-Lys-Gly-Gly-NH2)
secondary association / binding to F′GG-CB[8] [3]: no secondary association

NCC(=O)N[C@@H](Cc1ccc(O)cc1)C(=O)NCC(N)=O [GYG] (H-Gly-Tyr-Gly-NH2)
Ka [3]: 4 ± 0.3 10^3M^−1

NC(=O)CNC(=O)CNC(=O)[C@@H](N)Cc1ccccc1 [FGG, (S)-2-amino-N-(2-((2-amino-2-oxoethyl)amino)-2-oxoethyl)-3-phenylpropanamide] (H-Phe-Gly-Gly-NH2)
Ka [3]: 356 ± 26 10^3M^−1
binding strength K of homodimer 2FGG-CB[8] [4]: ca. 10^11 M^−2

NCC(=O)NCC(=O)N[C@@H](Cc1ccc(O)cc1)C(N)=O [GGY, (S)-2-(2-(2-aminoacetamido)acetamido)-3-(4-hydroxyphenyl)propanamide] (H-Gly-Gly-Tyr-NH2)
secondary association / binding to F′GG-CB[8] [3]: no secondary binding

NCC(=O)N[C@@H](Cc1c[nH]c2ccccc12)C(=O)NCC(N)=O [GWG, (S)—N-(2-amino-2-oxoethyl)-2-(2-aminoacetamido)-3-(1H-indol-3-yl)propanamide] (H-Gly-Trp-Gly-NH2)
Ka [3]: 103 ± 6 10^3M^−1

(S)-2-amino-N-(2-((2-amino-2-oxoethyl)amino)-2-oxoethyl)-3-(perfluorophenyl) propenamide [F′GG]
first-step binding constant (K1) [5]: 660000 M⁻¹
second-step binding constant (K2) [5]: 9400 M⁻¹

NCC(=O)N[C@@H](Cc1ccccc1)C(=O)NCC(N)=O [GFG, (S)—N-(2-amino-2-oxoethyl)-2-(2-aminoacetamido)-3-phenylpropanamide] (H-Gly-Phe-Gly-NH2)
Ka [3]: 58 ± 3 10^3M^−1

NCC(=O)NCC(=O)N[C@@H](Cc1ccc2ccccc2c1)C(N)=O [GGNp, (S)-2-(2-(2-aminoacetamido)acetamido)-3-(naphthalen-2-yl)propanamide] (H-Gly-Gly-[2Nal]-NH2)
Ka [3]: 90 ± 2 10^3M^−1
